Measurements reported in patent US11254676B2, “Pyrazole derivative compound and use thereof” (HANMI PHARM. CO., LTD., priority 2017, dated 2022).

These compounds were tested on NCI-H1417 cells (assay: Cell growth suppression test, CellTiter-Glo Luminescent Cell Viability Assay). Conditions: Homo sapiens, 240 h; NCI-H1417 cells treated for 10 days.
Format: cell-based
Description: Cell growth suppression effects of the synthesized compounds on NCI-H1417 cells were identified. The cells were treated with the synthesized compounds for 10 days. Then, in order to test the cell growth suppression, CellTiter-Glo Luminescent Cell Viability Assay (available from Promega, USA) was used. This test is to measure emission signals proportional to the number of ATPs based on a fixed amount of ATPs, which represents the presence of metabolically active cells, thereby determining the number of viable cells. The results are expressed as a GI50 value. As for a control, GSK2879552 (available from GlaxoSmithKline USA) was used.

GI50	Compound
10 nM	CCO[C@H]1CCN(c2ccc(-n3nc(C(=O)N4CCC[C@@H](NC)C4)cc3-c3ccc(C#N)c(F)c3)c(F)c2)C1 [Example 71, 2-fluoro-4-(1-(2-fluoro-4-((S)-3-ethoxypyrrolidine-1-yl)phenyl)-3-((R)-3-(methylamino)piperidine-1-carbonyl)-1H-pyrazole-5-yl)benzonitrile]
38 nM	N#Cc1ccc(-c2cc(C(=O)N3CCC[C@@H](N)C3)nn2-c2ccc(N3CCC(O)C3)cc2F)cc1F (stereo partly drawn) [Example 72, 4-(3-((R)-3-aminopiperidine-1-carbonyl)-1-(2-fluoro-4-(3-hydroxypyrrolidine-1-yl)phenyl)-1H-pyrazole-5-yl)-2-fluorobenzonitrile]
39 nM	CN[C@@H]1CCCN(C(=O)c2cc(-c3ccc(C#N)c(F)c3)n(-c3ccc(N4CC[C@H](Cl)C4)cc3F)n2)C1 [Example 73, 2-fluoro-4-(1-(2-fluoro-4-((S)-3-chloropyrrolidine-1-yl)phenyl)-3-((R)-3-(methylamino)piperidine-1-carbonyl)-1H-pyrazole-5-yl)benzonitrile]
119 nM	CC1CC(C)CN(c2ccc(-n3nc(C(=O)N4CCC[C@@H](N)C4)cc3-c3ccc(C#N)c(F)c3)c(F)c2)C1 (stereo partly drawn) [Example 82, 4-(3-((R)-3-aminopiperidine-1-carbonyl)-1-(4-(3,5-dimethylpiperidine-1-yl)-2-fluorophenyl)-1H-pyrazole-5-yl)-2-fluorobenzonitrile]
71 nM	N#Cc1ccc(-c2cc(C(=O)N3CCC[C@@H](N)C3)nn2-c2ccc(N3CCC(N4CCCCC4)CC3)cc2F)cc1F [Example 83, (R)-4-(1-(4-([1,4′-bipiperidine]-1′-yl)-2-fluorophenyl)-3-(3-aminopiperidine-1-carbonyl)-1H-pyrazole-5-yl)-2-fluorobenzonitrile]

More lines, now with the values behind:

Compound	GI50
N#Cc1ccc(-c2cc(C(=O)N3CCC[C@@H](N)C3)nn2-c2c(F)cc(N3CCCC3)cc2F)cc1F [Example 74, (R)-4-(3-(3-aminopiperidine-1-carbonyl)-1-(2,6-difluoro-4-(pyrrolidine-1-yl)phenyl)-1H-pyrazole-5-yl)-2-fluorobenzonitrile]	8.8 nM
N#Cc1ccc(-c2cc(C(=O)N3CCC[C@@H](N)C3)nn2-c2ccc(N3CCCC3)cc2Cl)cc1F [Example 75, (R)-4-(3-(3-aminopiperidine-1-carbonyl)-1-(2-chloro-4-(pyrrolidine-1-yl)phenyl)-1H-pyrazole-5-yl)-2-fluorobenzonitrile]	52 nM
COc1cc(N2CCCC2)ccc1-n1nc(C(=O)N2CCC[C@@H](N)C2)cc1-c1ccc(C#N)c(F)c1 [Example 76, (R)-4-(3-(3-aminopiperidine-1-carbonyl)-1-(2-methoxy-4-(pyrrolidine-1-yl)phenyl)-1H-pyrazole-5-yl)-2-fluorobenzonitrile]	43 nM
N#Cc1ccc(-c2cc(C(=O)N3CCC[C@@H](N)C3)nn2-c2ccc(N3CCCCC3)cc2F)cc1 [Example 77, (R)-4-(3-(3-aminopiperidine-1-carbonyl)-1-(2-fluoro-4-(piperidine-1-yl)phenyl)-1H-pyrazole-5-yl)benzonitrile]	67 nM
N#Cc1ccc(-c2cc(C(=O)N3CCC[C@@H](N)C3)nn2-c2ccc(N3CCCCC3)cc2F)cc1F [Example 78, (R)-4-(3-(3-aminopiperidine-1-carbonyl)-1-(2-fluoro-4-(piperidine-1-yl)phenyl)-1H-pyrazole-5-yl)-2-fluorobenzonitrile]	34 nM
N#Cc1ccc(-c2cc(C(=O)N3CCCC[C@@H](N)C3)nn2-c2ccc(N3CCCCC3)cc2F)cc1F [Example 84, (R)-4-(3-(3-aminoazepane-1-carbonyl)-1-(2-fluoro-4-(piperidine-1-yl)phenyl)-1H-pyrazole-5-yl)-2-fluorobenzonitrile]	84 nM
N#Cc1ccc(-c2cc(C(=O)N3CCC[C@@H](N)C3)nn2-c2ccc3c(c2)CCC3)cc1 [Example 87, (R)-4-(3-(3-aminopiperidine-1-carbonyl)-1-(2,3-dihydro-1H-indane-5-yl)-1H-pyrazole-5-yl)benzonitrile]	142 nM
